Structures are written as SMILES.

T1 sequence (P15516 20-51): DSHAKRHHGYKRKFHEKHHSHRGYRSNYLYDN
T1 sequence (Q9SQ57 with tags, fused parts or gaps DEL101-115 partner): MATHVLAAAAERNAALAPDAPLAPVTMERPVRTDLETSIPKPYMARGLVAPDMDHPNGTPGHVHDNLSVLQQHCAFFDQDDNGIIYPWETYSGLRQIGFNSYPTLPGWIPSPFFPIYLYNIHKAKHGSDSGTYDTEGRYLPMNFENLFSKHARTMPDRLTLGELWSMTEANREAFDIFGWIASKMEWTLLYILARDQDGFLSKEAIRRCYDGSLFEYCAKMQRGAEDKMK

One test concerns the target T1, caleosin–histatin 3 fusion protein (Homo sapiens, UniProt P15516).
T1 construct: gene HTN3; sesame caleosin lacking residues 101-115 fused with histatin 3; synthetic histatin DNA; E. coli BL21(DE3), insoluble pellet; about 29 kDa; with Caleosin (Peroxygenase)
In words: flotation of aggregated artificial oil bodies (emulsion layer thickness), light microscopy. It is filed as binding. The conditions noted are these: equal volumes oil bodies and 2 mM catechin; 100 mM potassium phosphate, 50 mM KCl, pH 7.0; normalised to ECG; indirect, no caleosin-only control.
For the compound `Oc1cc(O)c2c(c1)O[C@H](c1ccc(O)c(O)c1)[C@@H](O)C2` [C, (+)-catechin], the “relative astringency (%)” value is on record as “aggregation of artificial oil bodies interacting with each catechin was examined”.

As to `O=C(O[C@@H]1Cc2c(O)cc(O)cc2O[C@H]1c1ccc(O)c(O)c1)c1cc(O)c(O)c(O)c1` [CG, (−)-catechin gallate], the “relative astringency (%)” value is “aggregation of artificial oil bodies interacting with each catechin was examined”.

For the compound `Oc1cc(O)c2c(c1)O[C@H](c1ccc(O)c(O)c1)[C@H](O)C2` [EC, (−)-epicatechin], the “relative astringency (%)” value is listed as “aggregation of artificial oil bodies interacting with each catechin was examined”.

Turning to `Oc1cc(O)c2c(c1)O[C@H](c1cc(O)c(O)c(O)c1)[C@H](O)C2` [EGC, (−)-epigallocatechin], the “relative astringency (%)” value is “aggregation of artificial oil bodies interacting with each catechin was examined”.

Regarding `O=C(O[C@@H]1Cc2c(O)cc(O)cc2O[C@@H]1c1cc(O)c(O)c(O)c1)c1cc(O)c(O)c(O)c1` [EGCG, (−)-epigallocatechin gallate], the “relative astringency (%)” value is given as “aggregation of artificial oil bodies interacting with each catechin was examined”.

In the case of `Oc1cc(O)c2c(c1)O[C@@H](c1cc(O)c(O)c(O)c1)[C@H](O)C2` [GC, (−)-gallocatechin], the “relative astringency (%)” value is recorded as “aggregation of artificial oil bodies interacting with each catechin was examined”.

For `O=C(O[C@@H]1Cc2c(O)cc(O)cc2O[C@H]1c1cc(O)c(O)c(O)c1)c1cc(O)c(O)c(O)c1` [GCG, (−)-gallocatechin gallate], the “relative astringency (%)” value is recorded as “aggregation of artificial oil bodies interacting with each catechin was examined”.

The next test addresses T1, caleosin–histatin 3 fusion protein. In words: atomic force and scanning electron microscopy of artificial oil bodies. In kind it is binding. The conditions noted are these: 5 mM rutin; oil bodies in distilled water, dried on silicon wafer; oil bodies alone set as 100%; indirect, no caleosin-only control.
For the compound `C[C@@H]1O[C@@H](OC[C@H]2O[C@@H](Oc3c(-c4ccc(O)c(O)c4)oc4cc(O)cc(O)c4c3=O)[C@H](O)[C@@H](O)[C@@H]2O)[C@H](O)[C@H](O)[C@H]1O` [rutin], the “relative surface roughness (%)” value was “a smooth surface was observed on artificial oil bodies complexed with rutin”.

Values taken from PMC9457659, “Exploring The Relative Astringency of Tea Catechins and Distinct Astringent Sensation of Catechins and Flavonol Glycosides via an In Vitro Assay Composed of Artificial Oil Bodies” (Molecules, 2022).
